Measured values as given in article PMC7462507, “Noncompetitive Inhibition of Bovine Liver Catalase by Lawsone: Kinetics, Binding Mechanism and in silico Modeling Approaches” (Iranian Journal of Pharmaceutical Research : IJPR, 2020).

Target: T1, bovine liver catalase (BLC) (Bos taurus, UniProt P00432)
T1 construct: gene CAT
T1 sequence (P00432 2-527): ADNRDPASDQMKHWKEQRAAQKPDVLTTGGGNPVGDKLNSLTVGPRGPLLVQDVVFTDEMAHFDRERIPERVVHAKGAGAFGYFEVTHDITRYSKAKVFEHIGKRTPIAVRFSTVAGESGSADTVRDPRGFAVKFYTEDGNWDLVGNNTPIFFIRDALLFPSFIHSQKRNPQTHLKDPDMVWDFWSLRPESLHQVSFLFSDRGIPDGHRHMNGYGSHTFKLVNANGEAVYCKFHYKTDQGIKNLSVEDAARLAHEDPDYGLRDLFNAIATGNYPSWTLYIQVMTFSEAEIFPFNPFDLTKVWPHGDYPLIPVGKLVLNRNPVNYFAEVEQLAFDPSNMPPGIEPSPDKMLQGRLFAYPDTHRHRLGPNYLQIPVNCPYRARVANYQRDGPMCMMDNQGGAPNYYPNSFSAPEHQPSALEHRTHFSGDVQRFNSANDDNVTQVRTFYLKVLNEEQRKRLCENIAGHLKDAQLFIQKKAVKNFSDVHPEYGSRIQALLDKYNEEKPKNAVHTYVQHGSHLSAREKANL
Assay: UV kinetics of H2O2 decomposition at […] nm, Lineweaver-Burk (IC50 about […]); supported by fluorescence quenching, UV-vis and ATR-FTIR
Assay type: biochemical

## O=C1C=C(O)C(=O)c2ccccc21 [LAW, 2-hydroxy-1,4-naphtoquinone]
  Ki: 15.8 µM
